US6812225B2, “Therapeutic heterocyclic compounds” (AstraZeneca AB, priority 2001, dated 2004)

Legend:
[1] = system: guinea pigs; experiment: Learned helplessness test; type: in vivo, guinea pig; conditions: antidepressant/antianxiety activity
Source text: The utility of the compounds for example to treat depression may be shown via a learned helplessness test in guinea pigs, which is used extensively as correlative to antidepressant activity in humans. The learned helplessness test may be carried out as follows: Seventy male Hartley guinea pigs, each weighing about 350-425 gm are fed ad lib, and are housed under a 12-hour light/dark cycle. The procedure consists of two phases: The induction phase and the avoidance training phase. In the induction phase, subjects are placed into standard shuttle cages (20 L×16 W×21 centimeters H) which are fitted with a grid floor. Electrical stimulation (1.25 mA, 10 sec duration) is delivered to the floor of the cage every 90-sec during 1 hour daily sessions. Subjects have no opportunity to escape or to avoid shocks. Induction is conducted for 2 consecutive days.
In avoidance training, testing is also conducted in the shuttle cages, except that the subjects are not returned to the same chamber in which induction had occurred. Additionally, all cages are fitted with a partition with an arch in the center of the cage, through which animals can pass between the left and right halves of the cage. The procedure employed is a standard shuttle avoidance procedure in which a compound, conditioned stimulus (a 10-sec presentation of a tone and turning on of a lamp on the side of the cage that the guinea pig was occupying) serves to indicate presentation of electrical current to the floor of the cage. Shock is presented for a 5 sec period, 5 sec after initiation of the conditioned stimulus. Entry into the opposite side of the shuttle cage via the arched partition prior to shock onset results in the end of the trial (avoidance response). If shock is delivered, entry into the opposite side of the cage results in termination of the shock and CS (escape). Reversal of learned helplessness in the induction subjects correlates to antidepressant activity of the test compound.
Avoidance training, 45-min in duration, is conducted on 2 consecutive days, beginning 48 hr after the final induction session. Seventy subjects are assigned to 1 of 6 groups of 11-12 animals. The groups are as follows:
Groups 2-6 are given induction and avoidance training sessions. Injections are administered immediately following induction sessions and 1 hour prior to avoidance training sessions. A second injection is administered 7-8 hours following the first injection, for a total of 9 injections administered over 5 days. No injections are administered following the final avoidance training session.
Compounds of the present invention may be administered in a volume of 1 ml/kg bwt. Imipramine is dissolved in DI water. The compounds are dissolved in DI water, to which was added a few drops of lactic acid (pH 5.5). […]

[2] = biological target: 5-HT1B and 5HT1D receptors; conditions: saturation studies, guinea pig cortex; read-out: Kd value of [3H]GR125743; cited from earlier work

| melting point | SMILES | activity in the learned helplessness assay [1] | Kd [2] [nM] |
| --- | --- | --- | --- |
| 215 to 216 °C | CN1CCN(c2cccc3c2OC(C(=O)Nc2ccc(N4CCOCC4)cc2)CC3)CC1 (racemic) [Example 75, racemic-8-(4-Methyl-piperazin-1-yl)-chroman-2-carboxylic acid (4-morpholin-4-yl-phenyl)-amide] |  |  |
| 215 to 216 °C | CN1CCN(c2cccc3c2OC(C(=O)Nc2ccc(N4CCOCC4)cc2)CC3=O)CC1 (racemic) [Example 78, racemic-8-(4-methyl-piperazin-1-yl)-4-oxo-chroman-2-carboxylic acid (4-morpholin-4-yl-phenyl)-amide] |  |  |
| 216 °C (dec.) | CN1CCN(c2cccc3c2OC(C(=O)Nc2ccc(N4CCOCC4)cc2)CC3=O)CC1 (single isomer, unassigned) [Example 79, 8-(4-Methyl-piperazin-1-yl)-4-oxo-chroman-2-carboxylic acid (4-morpholin-4-yl-phenyl)-amide] |  |  |
| 215 °C (dec.) | CN1CCN(c2cccc3c2OC(C(=O)Nc2ccc(N4CCOCC4)cc2)CC3=O)CC1 (single isomer, unassigned) [Example 80, 8-(4-Methyl-piperazin-1-yl)-4-oxo-chroman-2-carboxylic acid (4-morpholin-4-yl-phenyl)-amide] |  |  |
| 206 to 207 °C | CN1CCN(c2cccc3c2OC(C(=O)Nc2ccc(N4CCOCC4)cc2)CC3)CC1 (single isomer, unassigned; (+)) [Example 76, (+)-8-(41-Methyl-piperazin-1-yl)-chroman-2-carboxylic acid (4-morpholin-4-yl-phenyl)-amide] |  |  |
| 205.5 to 207 °C | CN1CCN(c2cccc3c2OC(C(=O)Nc2ccc(N4CCOCC4)cc2)CC3)CC1 (single isomer, unassigned; (-)) [Example 77, (−)-8-(4-Methyl-piperazin-1-yl)-chroman-2-carboxylic acid (4-morpholin-4-yl-phenyl)-amide] |  |  |
| 236 to 238 °C | CCNC(=O)N1CCN(c2ccc(NC(=O)c3cc(=O)c4cc(F)cc(N5CCN(C)CC5)c4o3)cc2)CC1 [Example 81, 4-[4-({1-[6-Fluoro-8-(4-methyl-piperazin-1-yl)-4-oxo-4H-chromen-2-yl]-methanoyl}-amino)-phenyl]-piperazine-1-carboxylic acid ethylamide] |  |  |

The remaining lines, values behind:

| SMILES | melting point | activity in the learned helplessness assay [1] | Kd [2] [nM] |
| --- | --- | --- | --- |
| CN1CCN(c2cccc3c(=O)cc(C(=O)Nc4ccc(N5CCOCC5)cc4)oc23)CC1 [Example 1, 8-(4-methyl-1-piperazinyl)-N-[4-(4-morpholinyl)phenyl]-4-oxo-4H-chromene-2-carboxamide] | 217 to 218 °C (dec.) |  |  |
| CN1CCN(c2cccc3c(=O)cc(-c4nc5ccc(N6CCOCC6)cc5o4)oc23)CC1 [Example 21, 8-(4-Methyl-piperazin-1-yl)-2-(6-morpholin-4-yl-benzooxazol-2-yl)-chromen-4-one] | 158.1 to 158.8 °C |  |  |
| CN1CCN(c2cccc3c(=O)cc(C(=O)Nc4ccc(N5CCOCC5)cc4O)oc23)CC1 [Example 22, 8-(4-Methyl-piperazin-1-yl)-4-oxo-4H-chromene-2-carboxylic acid (2-hydroxy-4-morpholin-4-yl-phenyl)-amide] | 248.4 to 249.6 °C |  |  |
| CN1CCN(c2cccc3c(=O)cc(C(=O)N(C)c4ccc(N5CCOCC5)cc4)oc23)CC1 [Example 25, 8-(4-Methylpiperazin-1-yl)-4-oxo-4H-chromene-2-carboxylic acid methyl-(4-morpholin-4-yl-phenyl)amide] | 245 to 246.8 °C |  |  |
| COc1cc(N2CCN(C)CC2)c2oc(C(=O)Nc3ccc(N4CCOCC4)cc3)cc(=O)c2c1 [Example 31, 6-Methoxy-8-(4-methyl-piperazin-1-yl)-4-oxo-4H-chromene-2-carboxylic acid (4-morpholin-4-yl-phenyl)-amide] | 234 to 236 °C | demonstrate activity |  |
| CCC(=O)N1CCN(c2ccc(NC(=O)c3cc(=O)c4cc(OC)cc(N5CCN(C)CC5)c4o3)cc2)CC1 [Example 44, 6-Methoxy-8-(4-methyl-piperazin-1-yl)-4-oxo-4H-chromene-2-carboxylic acid [4-(4-propionyl-piperazin-1-yl)-phenyl]-amide] |  | demonstrate activity |  |
| CCS(=O)(=O)N1CCN(c2ccc(NC(=O)c3cc(=O)c4cc(OC)cc(N5CCN(C)CC5)c4o3)cc2)CC1 [Example 45, 6-Methoxy-8-(4-methyl-piperazin-1-yl)-4-oxo-4H-chromene-2-carboxylic acid [4-(4-ethanesulfonyl-piperazin-1-yl)-phenyl]-amide] | 232 to 234 °C |  |  |
| COc1cc(N2CCN(C)CC2)c2oc(C(=O)Nc3ccc(N4CCN(C(=O)CCO)CC4)cc3)cc(=O)c2c1 [Example 68, 6-Methoxy-8-(4-methyl-piperazin-1-yl)-4-oxo-4H-chromene-2-carboxylic acid {4-[4-(3-hydroxy-propanoyl)-piperazin-1-yl]-phenyl}-amide] | 195 to 197 °C |  |  |
| CCS(=O)(=O)N1CCN(c2ccc(NC(=O)c3cc(=O)c4cc(F)cc(N5CCN(C)CC5)c4o3)cc2)CC1 [Example 71] | 233 to 234 °C | demonstrate activity |  |
| CCC(=O)N1CCN(c2ccc(NC(=O)c3cc(=O)c4cc(F)cc(N5CCN(C)CC5)c4o3)cc2)CC1 [Example 72, 6-flouro-8-(4-methyl-piperazin-1-yl)-4-oxo-4H-chromene-2-carboxylic acid [4-(4-propionyl-piperazin-1-yl)-phenyl]-amide] | 244 to 245 °C | demonstrate activity |  |
| CN1CCN(c2cc(F)cc3c(=O)cc(C(=O)Nc4ccc(N5CCN(C(=O)CCO)CC5)cc4)oc23)CC1 [Example 73, 6-Fluoro-8-(4-methyl-piperazin-1-yl)-4-oxo-4H-chromene-2-carboxylic acid {4-[4-(3-hydroxy-propanoyl)-piperazin-1-yl]-phenyl}-amide] | 195 to 199 °C |  |  |
| COc1ccc(NC(=O)c2ccc(-c3ccncc3)c(C)c2)cc1N1CCN(C)CC1 [[^3H]-GR125743] |  |  | 0.046 ± 0.004 |
